Where “and” joins values, the source holds several entries; their conditions need not be identical. Equal entries are not always repeated. One block for each compound: values may come before it.
Key:
Parameters in all cases: His6 (N, cleaved yes); made in house; host or cells: E. coli BL21-(DE3)-Lemo, pET28a vector
[1] = molecular target: T1, BiP NBD (Homo sapiens, UniProt P11021); test: NMR without ATP regeneration at variable ADP:ATP ratio with 3.3 mM calcium, with and without E2; assay type: biochemical; conditions: replicates
T1 sequence (P11021 19-406): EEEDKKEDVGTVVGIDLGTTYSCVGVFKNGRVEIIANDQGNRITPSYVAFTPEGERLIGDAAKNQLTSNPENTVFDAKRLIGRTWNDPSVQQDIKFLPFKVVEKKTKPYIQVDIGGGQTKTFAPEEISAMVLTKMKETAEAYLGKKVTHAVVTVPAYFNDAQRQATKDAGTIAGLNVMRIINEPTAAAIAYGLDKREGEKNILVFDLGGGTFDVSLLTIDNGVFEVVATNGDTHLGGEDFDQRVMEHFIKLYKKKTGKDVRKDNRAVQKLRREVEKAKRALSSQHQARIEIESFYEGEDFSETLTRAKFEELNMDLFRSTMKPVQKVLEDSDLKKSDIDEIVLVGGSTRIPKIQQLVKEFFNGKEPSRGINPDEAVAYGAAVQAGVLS
Excerpt: Finally, we wanted to explore the effect of calcium on conditions with variable ADP concentration that represent the conditions in the ER. We thus exploited our modular experimental setup in the absence of the ATP regeneration system, with and without phosphate, to generate conditions where the ADP concentration increases (Supplementary Fig. 18). We determined the ATP hydrolysis rate and the populations of the different states for different ADP:ATP ratios and phosphate concentrations. We observed NMR signals corresponding to the NBD·ADP·Ca^2+-bound state, but not the NBD·Ca^2+-bound state, with population and occupancy time increasing with the ADP concentration (Fig. 5e). When free phosphate was allowed to accumulate in parallel, the occupancy time of the NBD·ADP·Ca^2+ state decreased, showing that the phosphate prevents the calcium from binding (Fig. 5f).
Supplementary Figure 18. NBD·ADP·Ca2+ forms as an off-cycle pathway state. a, 2D [13C,1H]-TROSY spectrum of methyl-labeled NBD in the presence of ADP:ATP 1:3, 3.3 mM calcium ([Mg2+]/[Ca2+]=3) and E2 active. State- and sequence-specific resonance assignments are indicated for the ADP·Ca2+- bound state (dark-pink), ADP-bound (light blue), ADP·Pi-bound (dark blue) and ATP-bound (red) states. b, Selected sections of 2D [13C,1H]-methyl-TROSY spectra of residue Val50cg1 in the presence of ADP:ATP 1:3 (pink) and with 3.3 mM calcium ([Mg2+]/[Ca2+]=3) (black) compared to in-cyclo no calcium (pink) and the equilibrium experiments of NBD with 3.3 mM calcium ([Mg2+]/[Ca2+]=3) (ligh-pink), NBD with 1 mM ADP and 3.3 mM calcium ([Mg2+]/[Ca2+]=3) (dark-pink). c,d, same as in (a,b) for the system in the absence of E2, i.e the phosphate concentration increases with ATP hydrolysis.

[2] = molecular target: T1, BiP NBD; test: Equilibrium 2D methyl-TROSY NMR fingerprint spectra with ligands (ATP analogs, calcium); assay type: binding; conditions: 3.3 mM calcium, 10 mM magnesium
Experimental: First, we probed calcium binding to ADP-bound NBD by NMR equilibrium experiments. […] (Supplementary Fig. 15d). […] (Supplementary Fig. 16).
AMPPNP (adenylyl imidodiphosphate; Jena-bioscience), AMPPCP (adenylyl methylenediphosphate; Jena-bioscience) and ATP-γ-S (adenosine 5’-(gamma-thiotriphosphate; Jena-bioscience) were dissolved in the HKM reaction buffer (25 mM HEPES, pH 7.5, 150 mM KCl and 10 mM MgCl2) at a concentration of 50 mM directly before to be mixed with the BiP NBD sample. Samples were prepared fresh before each use to minimize the known instability of these analogs that undergo slow hydrolysis in solution.
Supplementary Figure 7. Analysis of the BiP NBD ATP-bound state. a, Combined methyl chemical shift differences between the APD·Pi-bound and the ATP-bound state of BiP NBD in-cyclo. The magnitude of 1 and 1.5 SDs are indicated by an orange and a red line, respectively. b, Overlay of 9 crystal structures of BiP NBD in presence of different nucleotides (colored sticks). c, Backbone root means square deviation (RMSD - Å) between the structures shown in (b) and the NBD apo state (PDB 3LDN). d, 2D [13C,1H]-TROSY spectrum of methyl-labeled BiP NBD in equilibrium with the ATP analogs AMPPNP (green), AMPPCP (orange) or ATP-γ-S (yellow), overlayed with the spectrum in-cyclo (pink).
State- and sequence-specific resonance assignments are indicated for the ADP-bound (light blue), ADP·Pi-bound (dark blue) and the ATP-bound (red) states in-cyclo.
(§1) (1 picture or pasted object on this page, not shown here)
Supplementary Figure 15. Mapping of calcium binding to BiP NBD. a, Selected details from published structures of BiP. From left to right: yeast BiP(NBD)-Mg2+-ADP (PDB 3QFU), human BiP(NBD)-Mg2+- ADP·Pi (PDB 5EVZ), human BiP(NBD)-Ca2+-ADP (PDB 6ZYH). b, Selected sections of 2D [13C,1H]-methyl-TROSY spectra of residue val50cg1 or Ile52cd1 for the equilibrium experiments of NBD apo (grey), NBD with 5 mM Pi (green), NBD with 1 mM ADP (light blue), NBD with 1 mM ADP·Pi (dark blue), NBD with 1 mM ADP-Ca2+ (dark-pink).and NBD with 3.3 mM calcium ([Mg2+]/[Ca2+]=3) (light-pink). c, Combined methyl chemical shift differences between the BiP NBD APD and the ADP-Ca2+-bound state. The magnitude of 1 and 1.5 SDs are indicated by a light blue and a dark blue line. d, Structure of NBD in […]
the ADP-Ca-bound state (PDB 6ZYH).

[3] = molecular target: T1, BiP NBD; test: NMR experiment with MABA-ATP (no E1, no E2) and kinetic fit of the MABA-ATP/MABA-ADP functional cycle; assay type: biochemical; conditions: for koff / kon / Kd: MABA-ATP instead of ATP; for Kd: T = 37°C; for species: Supplementary Fig 13b
Experimental: […] After the equilibration time 2D [^13C,^1H]-HMQC spectra were recorded in interleaved mode with 1D ^1H NMR spectra. […] The same setup was used for the alternative experiments by including or excluding E1 and/or E2. When E1 was not included, the ratio of the ATP/ADP NMR signals was used to monitor their relative concentrations.
as §1

cycle ([1]; Fig 5e: with E2, 3.3 mM calcium, ADP:ATP 1:2): 151.31 s and 139.92 s and 133.95 s
cycle ([1]; Fig 5e: with E2, 3.3 mM calcium, ADP:ATP 1:3): 107.58 s and 118.91 s and 122.37 s
cycle ([1]; Fig 5e: with E2, 3.3 mM calcium, ADP:ATP 1:4): 78.87 s and 92.84 s and 108.72 s
cycle ([1]; Fig 5e: with E2, 3.3 mM calcium, ADP:ATP 1:5): 55.19 s and 43.78 s and 57.90 s
cycle ([1]; Fig 5f: without E2, 3.3 mM calcium, ADP:ATP 1:2): 191.98 s and 221.37 s and 190.59 s
cycle ([1]; Fig 5f: without E2, 3.3 mM calcium, ADP:ATP 1:3): 130.46 s and 156.85 s and 135.76 s
cycle ([1]; Fig 5f: without E2, 3.3 mM calcium, ADP:ATP 1:4): 97.52 s and 113.75 s and 85.45 s
cycle ([1]; Fig 5f: without E2, 3.3 mM calcium, ADP:ATP 1:5): 72.26 s and 65.96 s and 73.59 s
calcium binding to ADP-bound NBD (CSPs) [2]: calcium binding occurred
Structure (SMILES): [Ca+2] [calcium]

koff ([3]; reactions 1MABA, 2MABA, 3): 1 ± 0.3 s⁻¹
kon ([3]; reactions 1MABA, 2MABA, 3): 3500 ± 500 M⁻¹ s⁻¹
Kd ([3]; reactions 1MABA, 2MABA, 3: release to apo NBD): 280 ± 30 µM
koff ([3]; reactions 4MABA, 5MABA): 0.043 s⁻¹
kon ([3]; reactions 4MABA, 5MABA): 120 ± 20 M⁻¹ s⁻¹
Kd ([3]; reactions 4MABA, 5MABA: release from NBD·MABA-ADP·Pi): 360 ± 20 µM
species ([3]; time 4 min): 350 µM
species ([3]; time 10 min): 508 µM
species ([3]; time 16 min): 626 µM
species ([3]; time 22 min): 712 µM
species ([3]; time 28 min): 800 µM
species ([3]; time 34 min): 840 µM
species ([3]; time 40 min): 889 µM
species ([3]; time 46 min): 907 µM
species ([3]; time 52 min): 929 µM
species ([3]; time 58 min): 924 µM
species ([3]; time 64 min): 932 µM
Structure (SMILES): O=P(O)(O)O [Pi]
